Reference: PubChem BioAssay AID489011 (The Scripps Research Institute Molecular Screening Center, 2010)
Active and inactive are the calls of the source.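 Rule for the calls: active = IC50 for blocking malaria parasite growth in red cells at or below 10 µM; inactive = the rest.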

Tested on: P. falciparum 3D7 in RBCs, 3H-hypoxanthine incorporation, 48 h
Test: P. falciparum blood-stage growth inhibition potency, late-stage follow-up, M18AAP inhibitor project, cell-based, radiolabel, RBCs, powder samples (AID 489011)

SMILES | IC50
Br/C(C=Nn1cnnc1)=C\c1ccccc1 | 11 µM (inactive)
O=C(COc1ccccc1C(=O)N/N=C/c1ccc(O)c(O)c1)N/N=C/c1ccc(O)c(O)c1 | 6 µM
Oc1ccc(CCNc2c3ccccc3nc3ccccc23)cc1O | < 1.6 µM
Oc1ccc(-c2csc(-c3ccccc3)n2)cc1O | > 25 µM (inactive)
CCC(C)c1ccc(O)c(N)c1 (configuration not stated) | 6 µM
Cc1cc(C)n2c(=S)[nH]nc2n1 | > 25 µM (inactive)
Cc1cc(C)cc(C(=O)n2cnnc2N)c1 | 7 µM
